According to ChEMBL document CHEMBL1201862, “PubChem BioAssay data set” (2004):
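Values below derive from 48-hour exposures of cells grown in 96-well plates, with endpoints linearly interpolated between the two concentrations bracketing the appropriate inhibition level. GI50 = concentration required for 50% inhibition of growth.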 The source made the active and inactive calls. Rule as the data show it: active = GI50 up to about 1.1 µM and inactive = higher.

Experiments:
Experiment in all cases: NCI-60 cell line screen, 48 h
HT-29 = test system: HT-29
SNB-78 = test system: SNB-78
HL-60 = test system: HL-60
KM12 = test system: KM12
HOP-92 = test system: HOP-92
RPMI-8226 = test system: RPMI-8226
OVCAR-4 = test system: OVCAR-4
A549 = test system: A549
U-251 = test system: U-251
M14 = test system: M14
EKVX = test system: EKVX
CCRF-CEM = test system: CCRF-CEM
KM-20L2 = test system: KM-20L2
HCT-116 = test system: HCT-116
NCI-H226 = test system: NCI-H226
SF-295 = test system: SF-295
786-0 = test system: 786-0
OVCAR-3 = test system: OVCAR-3
A498 = test system: A498
SNB-75 = test system: SNB-75
SW-620 = test system: SW-620
UO-31 = test system: UO-31
SK-MEL-28 = test system: SK-MEL-28
DMS-273 = test system: DMS-273
Malme-3M = test system: Malme-3M
COLO 205 = test system: COLO 205
HCT-15 = test system: HCT-15
SN12C = test system: SN12C
ACHN = test system: ACHN
RXF 393 = test system: RXF 393
K562 = test system: K562
NCI-H23 = test system: NCI-H23
IGROV-1 = test system: IGROV-1
XF498 = test system: XF498
DLD-1 = test system: DLD-1
NCI-H460 = test system: NCI-H460
SK-OV-3 = test system: SK-OV-3
LOX IMVI = test system: LOX IMVI
SK-MEL-2 = test system: SK-MEL-2
SF-539 = test system: SF-539
SK-MEL-5 = test system: SK-MEL-5
SF-268 = test system: SF-268
HCC 2998 = test system: HCC 2998
MOLT-4 = test system: MOLT-4
TK-10 = test system: TK-10
SNB-19 = test system: SNB-19
M19-MEL = test system: M19-MEL
UACC-257 = test system: UACC-257
OVCAR-8 = test system: OVCAR-8
UACC-62 = test system: UACC-62
DMS-114 = test system: DMS-114
LXFL 529 = test system: LXFL 529
HOP-62 = test system: HOP-62
OVCAR-5 = test system: OVCAR-5

For `C[C@]12CCC(=O)C=C1CC[C@@H]1C2CC[C@]2(C)c3nn(-c4ccccc4)nc3CC12` (some centres undefined), the GI50 (HT-29) was > 100 µM (inactive), the GI50 (SNB-78) was > 100 µM (inactive) and the GI50 (HL-60) was > 100 µM (inactive). The GI50 (KM12) was > 100 µM (inactive), the GI50 (HOP-92) was > 100 µM (inactive) and the GI50 (RPMI-8226) was > 100 µM (inactive). The GI50 (OVCAR-4) was > 100 µM (inactive), the GI50 (A549) was > 100 µM (inactive) and the GI50 (U-251) was > 100 µM (inactive). The GI50 (M14) was > 100 µM (inactive), the GI50 (EKVX) was > 100 µM (inactive) and the GI50 (CCRF-CEM) was > 100 µM (inactive). The GI50 (KM-20L2) was > 100 µM (inactive), the GI50 (HCT-116) was > 100 µM (inactive) and the GI50 (NCI-H226) was > 100 µM (inactive). The GI50 (SF-295) was > 100 µM (inactive), the GI50 (786-0) was > 100 µM (inactive) and the GI50 (OVCAR-3) was > 100 µM (inactive). The GI50 (A498) was > 100 µM (inactive), the GI50 (SNB-75) was > 100 µM (inactive) and the GI50 (SW-620) was > 100 µM (inactive). For the same compound, the GI50 (UO-31) was > 100 µM (inactive), the GI50 (SK-MEL-28) was > 100 µM (inactive) and the GI50 (DMS-273) was > 100 µM (inactive). The GI50 (Malme-3M) was > 100 µM (inactive), the GI50 (COLO 205) was > 100 µM (inactive) and the GI50 (HCT-15) was > 100 µM. For the same compound, the GI50 (SN12C) was > 100 µM (inactive), the GI50 (ACHN) was > 100 µM (inactive) and the GI50 (RXF 393) was > 100 µM (inactive). For the same compound, the GI50 (K562) was > 100 µM (inactive), the GI50 (NCI-H23) was > 100 µM (inactive) and the GI50 (IGROV-1) was > 100 µM (inactive). For the same compound, the GI50 (XF498) was > 100 µM (inactive), the GI50 (DLD-1) was > 100 µM (inactive) and the GI50 (NCI-H460) was > 100 µM (inactive). The GI50 (SK-OV-3) was > 100 µM (inactive), the GI50 (LOX IMVI) was > 100 µM (inactive) and the GI50 (SK-MEL-2) was > 100 µM (inactive). The GI50 (SF-539) was > 100 µM (inactive), the GI50 (SK-MEL-5) was > 100 µM (inactive) and the GI50 (SF-268) was > 100 µM (inactive). The GI50 (HCC 2998) was > 100 µM (inactive), the GI50 (MOLT-4) was > 100 µM (inactive) and the GI50 (TK-10) was > 100 µM (inactive). The GI50 (SNB-19) was > 100 µM (inactive), the GI50 (M19-MEL) was > 100 µM (inactive) and the GI50 (UACC-257) was > 100 µM (inactive). For the same compound, the GI50 (OVCAR-8) was > 100 µM (inactive), the GI50 (UACC-62) was > 100 µM (inactive) and the GI50 (DMS-114) was > 100 µM (inactive). For the same compound, the GI50 (LXFL 529) was > 100 µM (inactive), the GI50 (HOP-62) was > 100 µM (inactive) and the GI50 (OVCAR-5) was > 100 µM (inactive).
